# From patent publication US6641840B2, “Sustained release formulations for growth hormone secretagogues” (Pfizer Inc., priority 2000, dated 2003)
# Legend:
# IGF-1 = test: Clinical study in subjects 65-84 years: change from baseline in IGF-1; type: in vivo, human
# Procedure: This clinical study was performed in male and female subjects between the ages of 65 and 84 years inclusive, and whose baseline IGF-1 levels were <150 ng/ml.
# The study was a double blind, parallel group, placebo-controlled study.
# (§1) (All dosage forms in this part of the study were immediate release dosage forms.)
# In addition, an extension study was conducted to evaluate the relationship between peak GH concentrations or IGF-I versus surrogate responses such as lipid concentrations and body composition. A sustained release (SR) formulation was also evaluated, either alone or combined with an immediate release (IR) formulation (24-30 patients per group). [16 mg (10 SR, 6 IR) h.s. (h.s. means at bedtime); 16 mg (10 SR, 6 IR) h.s. every third day; 16 mg SR h.s.; and placebo.] The formulations are set forth below.
# Study active compound was supplied in blisterpaks, with five tablets to be taken at time of each dosing. Subjects were instructed to take the tablets with one glass of water at bedtime.
# Return visits were scheduled at 1, 2, and 4 weeks after baseline. […] The baseline and all subsequent follow-up visits were performed at the same time of day (between approximately 8-11 am).
# A follow-up evaluation was made at 1, 2, and 4 weeks. Vital signs were obtained and the skin of the face, trunk and upper extremities was inspected.
# (§2) The primary efficacy endpoint was the percentage change from baseline in IGF-1. Secondary outcomes included insulin-like growth factor binding protein 3 (IGFBP-3), cholesterol subfractions, and percent changes in total adipose and total lean tissue. Changes in each of the secondary efficacy measures over time were examined systematically either graphically or in tabular form and summarized using appropriate descriptive statistics as is well known in the art.
# IGF-I = test: Simulated sustained release study (bolus vs divided oral solution): serum IGF-I; type: in vivo, human; conditions: simulated sustained release dosing compared to bolus
# Procedure: This dosing regimen simulates active compound delivery by a sustained release dosage form. […] Serum concentrations of growth hormone were monitored just prior to administration of the first dose and every 20 minutes thereafter for 24 hours. Serum […] growth factor-I (IGF-I) concentrations were measured at 0, 12, and 24 hours post-first dose.
# The order of treatment was defined by a randomization schedule. Following initial administration, subjects were readmitted to the clinical research facility approximately 14 days later. During the second evaluation, the subject received the treatment not used during the previous session.
# IGF-I serum concentrations were determined following administration of the bolus or divided doses. […]
# IGF-I quantitation of the human serum samples was conducted using the “DSL-5600A Active™ IGF-I Coated-Tube IRMA (immunoradiometric assay) by Extraction” Kit (Diagnostic Systems Laboratories Inc., Webster, Tex.). […] Lyophilized calibration and validation samples were prepared by the addition of 1 mL of water to the ready-to-use samples. […] This neutralized human serum extract was ready for use in the actual IRMA after having vortexed it briefly. […] The remaining [^125I]radioactivity of all tubes was determined by counting for five minutes using a Canberra-Packard Cobra II™ 5002 ã-counter (Canberra-Packard, Schwadorf, Austria).
# [1] = test system: insulin-like growth factor binding protein 3 (IGFBP-3); test: Clinical study: IGFBP-3; type: in vivo, human; conditions: first leg, immediate release dosing
# Text: as §1, §2
# [2] = Solubility and osmotic pressure of the active compound (statement); type: physicochemical
compound,measurement,setting,value
CN1N=C2CCN(C(=O)[C@@H](COCc3ccccc3)NC(=O)C(C)(C)N)C[C@@]2(Cc2ccccc2)C1=O.O=C(O)C(O)C(O)C(=O)O [Compound A],average rise of IGF-I,"IGF-1; extension study, 16 mg (10 SR, 6 IR) h.s. every third day",approximately 10%
same,IGF-I,"IGF-1; extension study, each of the 2 groups dosed daily (16 mg (10 SR, 6 IR) h.s.; 16 mg SR h.s.)",increases
same,increase in IGF-I,"IGF-1; first leg, both groups administered 9 mg daily (3 mg tid; 3 mg am and 6 mg pm), immediate release, subjects 65-84 years",approximately 35%
same,IGF-I serum concentration change from baseline at 24 hours,IGF-I,increased
same,IGFBP3,[1],increased
same,osmotic pressure,[2],about 4 atmospheres
same,solubility,[2]; water,> 150 mg/mL
